These results are taken from US20240307362A1 (priority 2019, published 2024).

Molecules are shown by their SMILES. Read-outs that look alike come from different tables or passages of the source. Bounds are passed on as bounds.

Assay [1] has as its target mutEGFR (D770_N771insSVD) (Homo sapiens (Human), UniProt P00533, INS770SVD). Kind of assay: biochemical. To be noted: mutEGFR (D770_N771 insSVD) at 2 mM ATP IC50, 2 mM ATP.
The target in assay [2] is human Bub1 (Homo sapiens (Human), UniProt O43683). As to the kind of experiment: Bub1 high ATP kinase assay (TR-FRET). The class given is biochemical. From the text:
Bub1-inhibitory activity of compounds of the present invention at a high ATP concentration was quantified employing the Bub1 TR-FRET high ATP kinase assay as described in the following paragraphs.
N-terminally His6-tagged recombinant catalytic domain of human Bub1 (amino acids 704-1085), expressed in insect cells (Hi5) and purified by Ni-NTA affinity chromatography and subsequent size exclusion chromatography, was used as enzyme.

Assay [3] has as its system Ba/F3-EGFR-insSVD. As to the kind of experiment: Ba/F3 cell survival assay, EGFR-insSVD. The class given is cell-based. The procedure, abridged: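 Ba/F3 cells stably expressing WT EGFR or EGFR-insSVD via retrovirus, grown without IL-3 on 10 ng/mL EGF, plated at 4000 cells/well. Compound exposure 48 h at 37 °C; viability read by CellTiter-Glo luminescence.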
The subject of assay [4] is Ba/F3-EGFR-WT. As to the kind of experiment: Ba/F3 cell survival assay, WT EGFR. The class given is cell-based.
The mark [5] stands for this setting: read-out: Bub1 high ATP (2 mM) IC50, 2 mM ATP.
Where [6] appears, read: read-out: BA/F3 (insSVD) IC50, cell viability, Cell Titer-Glo, 48 h, with 10 ng/mL EGF, without IL-3.
Where [7] appears, read: read-out: BA/F3 (wild type) IC50, cell viability, Cell Titer-Glo, 48 h, with 10 ng/mL EGF, without IL-3.
Where [8] appears, read: Mus musculus, BaF3, 48 h, read-out: BA/F3 (insSVD) IC50, cell viability, Cell Titer-Glo, 48 h, with 10 ng/mL EGF, without IL-3.
Where [9] appears, read: Mus musculus, BaF3, 48 h, read-out: BA/F3 (wild type) IC50, cell viability, Cell Titer-Glo, 48 h, with 10 ng/mL EGF, without IL-3.

Chain of human Bub1 (O43683 704-1085): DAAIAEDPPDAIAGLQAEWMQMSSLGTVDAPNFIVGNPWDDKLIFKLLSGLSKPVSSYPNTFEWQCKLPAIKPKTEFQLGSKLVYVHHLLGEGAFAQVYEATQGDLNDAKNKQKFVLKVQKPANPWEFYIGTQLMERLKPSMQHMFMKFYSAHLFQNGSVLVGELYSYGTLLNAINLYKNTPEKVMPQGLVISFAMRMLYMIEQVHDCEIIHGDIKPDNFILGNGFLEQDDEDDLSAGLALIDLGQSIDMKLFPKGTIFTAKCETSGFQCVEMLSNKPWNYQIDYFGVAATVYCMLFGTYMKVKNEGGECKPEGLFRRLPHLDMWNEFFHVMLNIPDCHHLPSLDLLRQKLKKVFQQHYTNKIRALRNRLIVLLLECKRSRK
Chain of mutEGFR (D770_N771insSVD) (P00533 other isoform, or with tags, fused parts or gaps ins SVD behind 770): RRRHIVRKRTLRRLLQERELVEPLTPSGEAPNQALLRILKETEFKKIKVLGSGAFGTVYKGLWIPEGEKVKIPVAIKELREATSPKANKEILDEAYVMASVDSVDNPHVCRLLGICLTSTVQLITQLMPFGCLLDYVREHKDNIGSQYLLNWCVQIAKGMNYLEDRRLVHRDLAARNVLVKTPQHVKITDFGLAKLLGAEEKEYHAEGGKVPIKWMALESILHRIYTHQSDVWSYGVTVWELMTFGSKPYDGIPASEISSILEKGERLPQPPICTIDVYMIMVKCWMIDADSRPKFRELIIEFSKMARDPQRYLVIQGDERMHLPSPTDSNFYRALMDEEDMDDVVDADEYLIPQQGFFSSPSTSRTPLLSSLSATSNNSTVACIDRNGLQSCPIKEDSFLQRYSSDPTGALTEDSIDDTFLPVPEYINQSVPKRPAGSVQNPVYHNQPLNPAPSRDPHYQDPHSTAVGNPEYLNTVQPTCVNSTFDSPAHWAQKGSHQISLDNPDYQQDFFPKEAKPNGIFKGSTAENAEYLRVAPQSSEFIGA

Turning to `Cc1c(F)cccc1Nc1c(-c2ccncc2OCC2(C)CCO2)[nH]c2c1C(=O)NCC2` (single isomer, unassigned; (+)) [Example 85, (+)-3-(3-fluoro-2-methylanilino)-2-(3-{[2-methyloxetan-2-yl]methoxy}pyridin-4-yl)-1,5,6,7-tetrahydro-4H-pyrrolo[3,2-c]pyridin-4-one], the IC50 in assay [1] worked out at 0.107 nM; in assay [2] (setting [5]), 15800 nM; in assay [3] (setting [6]), 43.7 nM; in assay [4] (setting [7]), 1260 nM.

For the compound `CCC1(COc2cnccc2-c2[nH]c3c(c2Nc2cccc(F)c2OC)C(=O)NCC3)COC1` [Example 88, 2-{3-[(3-ethyloxetan-3-yl)methoxy]pyridin-4-yl}-3-(3-fluoro-2-methoxyanilino)-1,5,6,7-tetrahydro-4H-pyrrolo[3,2-c]pyridin-4-one], the IC50 in assay [1] worked out at 0.0873 nM; in assay [2] (setting [5]) it was 7490 nM; in assay [3] (setting [8]), 66.8 nM; in assay [4] (setting [9]) it was 1130 nM.

Consider `Cc1c(F)cccc1Nc1c(-c2ccncc2OCC2(C)CCO2)[nH]c2c1C(=O)NCC2` (racemic) [Example 83, 3-(3-fluoro-2-methylanilino)-2-(3-{[2-methyloxetan-2-yl]methoxy}pyridin-4-yl)-1,5,6,7-tetrahydro-4H-pyrrolo[3,2-c]pyridin-4-one], for which the IC50 in assay [1] is 0.246 nM; in assay [2] (setting [5]), over 20000 nM; in assay [3] (setting [8]), 41.9 nM; in assay [4] (setting [9]), 986 nM.

Turning to `COc1c(Cl)cc(F)cc1Nc1c(-c2ccncc2OCC2(C)CCO2)[nH]c2c1C(=O)NCC2` (racemic) [Example 68, 3-(3-chloro-5-fluoro-2-methoxyanilino)-2-(3-{[2-methyloxetan-2-yl]methoxy}pyridin-4-yl)-1,5,6,7-tetrahydro-4H-pyrrolo[3,2-c]pyridin-4-one], the IC50 in assay [1] is 0.215 nM; in assay [2] (setting [5]) it was over 20000 nM; in assay [3] (setting [8]) it was 103 nM; in assay [4] (setting [9]), 1260 nM.

Regarding `Cc1cccc(Nc2c(-c3ccncc3OCC3(C)CCO3)[nH]c3c2C(=O)NCC3)c1Cl` (single isomer, unassigned; (-)) [Example 57, (−)-3-(2-chloro-3-methylanilino)-2-{3-[(2-methyloxetan-2-yl)methoxy]pyridin-4-yl}-1,5,6,7-tetrahydro-4H-pyrrolo[3,2-c]pyridin-4-one], the IC50 in assay [1] was 0.264 nM; in assay [2] (setting [5]), 13000 nM; in assay [3] (setting [6]) it was 402 nM; in assay [4] (setting [7]), 3250 nM.

On to `O=C1NCCc2[nH]c(-c3ccncc3OCC3COC3)c(Nc3cccc(F)c3Cl)c21` [Example 16, 3-(2-chloro-3-fluoroanilino)-2-{3-[(oxetan-3-yl)methoxy]pyridin-4-yl}-1,5,6,7-tetrahydro-4H-pyrrolo[3,2-c]pyridin-4-one], for which the IC50 in assay [1] was determined as 0.0988 nM; in assay [2] (setting [5]), 13900 nM; in assay [3] (setting [8]), 193 nM; in assay [4] (setting [9]), 1140 nM.

With `CCN1CC[C@H]1COc1cnccc1-c1[nH]c2c(c1Nc1cccc(Cl)c1OC)C(=O)NCC2` [Example 28, 3-(3-chloro-2-methoxyanilino)-2-(3-{[(2S)-1-ethylazetidin-2-yl]methoxy}pyridin-4-yl)-1,5,6,7-tetrahydro-4H-pyrrolo[3,2-c]pyridin-4-one], the IC50 in assay [1] amounted to 1.06 nM; in assay [3] (setting [8]) it was 181 nM; in assay [4] (setting [9]), 1780 nM.

For `Cc1cccc(Nc2c(-c3ccncc3OCC3(C)CCO3)[nH]c3c2C(=O)NCC3)c1Cl` (racemic) [Example 55, 3-(2-chloro-3-methylanilino)-2-{3-[(2-methyloxetan-2-yl)methoxy]pyridin-4-yl}-1,5,6,7-tetrahydro-4H-pyrrolo[3,2-c]pyridin-4-one], the IC50 turned out to be 0.138 nM in assay [1], 15400 nM in assay [2] (setting [5]), 67.3 nM in assay [3] (setting [8]) and 593 nM in assay [4] (setting [9]).

For the compound `COc1c(Cl)cc(F)cc1Nc1c(-c2ccncc2OCC2(C)CCO2)[nH]c2c1C(=O)NCC2` (single isomer, unassigned) [Example 69, 3-(3-chloro-5-fluoro-2-methoxyanilino)-2-(3-{[2-methyloxetan-2-yl]methoxy}pyridin-4-yl)-1,5,6,7-tetrahydro-4H-pyrrolo[3,2-c]pyridin-4-one], the IC50 in assay [1] is 0.317 nM; in assay [2] (Bub1 high ATP (2 mM) IC50, 2 mM ATP), 13500 nM; in assay [3] (setting [6]) it was 241 nM; in assay [4] (setting [7]), 1430 nM.

`Cc1c(Cl)cccc1Nc1c(-c2ccncc2OC[C@]2(C)CCO2)[nH]c2c1C(=O)NCC2` (single isomer, unassigned) [Example 82, (+)-3-(3-chloro-2-methylanilino)-2-(3-{[2-methyloxetan-2-yl]methoxy}pyridin-4-yl)-1,5,6,7-tetrahydro-4H-pyrrolo[3,2-c]pyridin-4-one]: the IC50 in assay [1] amounted to 0.134 nM; in assay [2] (setting [5]), 5980 nM; in assay [3] (setting [8]), 34.8 nM; in assay [4] (setting [9]) it was 673 nM.

In the case of `CCC1(COc2cnccc2-c2[nH]c3c(c2Nc2cccc(C)c2Cl)C(=O)NCC3)COC1` [Example 86, 3-(2-chloro-3-methylanilino)-2-{3-[(3-ethyloxetan-3-yl)methoxy]pyridin-4-yl}-1,5,6,7-tetrahydro-4H-pyrrolo[3,2-c]pyridin-4-one], the IC50 in assay [1] is 0.187 nM; in assay [2] (setting [5]), over 5700 nM; in assay [3] (setting [8]), 255 nM; in assay [4] (setting [9]), 899 nM.

As to `Cc1c(F)cccc1Nc1c(-c2ccncc2OCC2(C)CCO2)[nH]c2c1C(=O)NCC2` (single isomer, unassigned; (-)) [Example 84, (−)-3-(3-fluoro-2-methylanilino)-2-(3-{[2-methyloxetan-2-yl]methoxy}pyridin-4-yl)-1,5,6,7-tetrahydro-4H-pyrrolo[3,2-c]pyridin-4-one], the IC50 in assay [1] amounted to 0.156 nM; in assay [2] (setting [5]) it was 14900 nM; in assay [3] (setting [6]), 306 nM; in assay [4] (setting [9]) it was 1290 nM.

Consider `Cc1cccc(Nc2c(-c3ccncc3OCC3(C)CCO3)[nH]c3c2C(=O)NCC3)c1Cl` (single isomer, unassigned; (+)) [Example 56, (+)-3-(2-chloro-3-methylanilino)-2-{3-[(2-methyloxetan-2-yl)methoxy]pyridin-4-yl}-1,5,6,7-tetrahydro-4H-pyrrolo[3,2-c]pyridin-4-one], for which the IC50 worked out at 0.15 nM in assay [1], 16100 nM in assay [2] (setting [5]), 35.1 nM in assay [3] (setting [6]) and 489 nM in assay [4] (setting [7]).

As for `COc1c(Cl)cccc1Nc1c(-c2ccncc2OC[C@H]2CCN2CC(F)(F)F)[nH]c2c1C(=O)NCC2` [Example 30, 3-(3-chloro-2-methoxyanilino)-2-(3-{[(2R)-1-(2,2,2-trifluoroethyl)azetidin-2-yl]methoxy}pyridin-4-yl)-1,5,6,7-tetrahydro-4H-pyrrolo[3,2-c]pyridin-4-one], the IC50 amounted to 0.346 nM in assay [1], 10.4 nM in assay [3] (setting [8]) and 402 nM in assay [4] (setting [9]).

For the compound `COc1c(Cl)cccc1Nc1c(-c2ccncc2OC[C@@H]2CCN2CC(F)(F)F)[nH]c2c1C(=O)NCC2` [Example 29, 3-(3-chloro-2-methoxyanilino)-2-(3-{[(2S)-1-(2,2,2-trifluoroethyl)azetidin-2-yl]methoxy}pyridin-4-yl)-1,5,6,7-tetrahydro-4H-pyrrolo[3,2-c]pyridin-4-one], the IC50 in assay [1] amounted to 0.304 nM; in assay [3] (setting [8]) it was 60.8 nM; in assay [4] (setting [9]), 1040 nM.

As for `CCC1(COc2cnccc2-c2[nH]c3c(c2Nc2cccc(Cl)c2C)C(=O)NCC3)COC1` [Example 23, 3-(3-chloro-2-methylanilino)-2-{3-[(3-ethyloxetan-3-yl)methoxy]pyridin-4-yl}-1,5,6,7-tetrahydro-4H-pyrrolo[3,2-c]pyridin-4-one], the IC50 in assay [1] is 0.96 nM; in assay [2] (setting [5]), over 5710 nM; in assay [3] (setting [8]) it was 190 nM; in assay [4] (setting [9]) it was 3380 nM.

In the case of `CCc1c(Cl)cccc1Nc1c(-c2ccncc2OCC2(C)CCO2)[nH]c2c1C(=O)NCC2` (stereo not drawn) [Example 78, 3-(3-chloro-2-ethylanilino)-2-(3-{[2-methyloxetan-2-yl]methoxy}pyridin-4-yl)-1,5,6,7-tetrahydro-4H-pyrrolo[3,2-c]pyridin-4-one], the IC50 worked out at 0.267 nM in assay [1], 2800 nM in assay [2] (setting [5]), 30.4 nM in assay [3] (setting [8]) and 698 nM in assay [4] (setting [9]).

With `Cc1c(Cl)cccc1Nc1c(-c2ccncc2OCC2(C)CCO2)[nH]c2c1C(=O)NCC2` (single isomer, unassigned; (-)) [Example 81, (−)-3-(3-chloro-2-methylanilino)-2-(3-{[2-methyloxetan-2-yl]methoxy}pyridin-4-yl)-1,5,6,7-tetrahydro-4H-pyrrolo[3,2-c]pyridin-4-one], the IC50 in assay [1] came to 0.129 nM; in assay [2] (setting [5]), 5050 nM; in assay [3] (setting [8]) it was 96.4 nM; in assay [4] (setting [9]), 664 nM.
